“Also recorded” adds a separate entry of the source.
How the values were obtained:
[1] = test system: SHIP1+/+ and SHIP1−/− BMmφs; assay: LPS-stimulated TNFα production in BMmφs; assay type: cell-based, mouse; settings: 30 min pretreatment, 10 ng/mL LPS, ELISA
Experimental: Production of SHIP+/+ and SHIP-/- BMMCs and BMnφs. […] LPS stimulation of BMmφs. For the analysis of LPS-stimulated TNFα production, 2 ×10^5 cells were plated the night before in 24 well plates in BMmφp medium. […] Data are expressed as the mean +/- SEM of triplicates and experiments were repeated 3 times. For analysis of intracellular signaling, 2×10^6 cells were plated the night before in 6 cm tissue culture plates. […] Cells were washed with 4° C. PBS and resuspended in lysis buffer (50 mM Hepes, 2 mM EDTA, 1mM NaVO4 , 100 mM NaF, 50 mM NaPPi and 1%NP4O) supplemented with COMPLETETM Protease Inhibitor Cocktail (Roche, Montreal, Canada). Lysates were rocked at 4° C. for 30 min and clarified by centrifuging 20 min at 12000×g. Lysates were then made 1× in Laemmli's buffer, boiled 2 min and loaded onto 7.5% SDS polyacrylamide […]. Immunoblot analysis for phospho PKB (Cell Signalling, Mississauga, Ont), SHIP1 and actin (Santa Cruz, Santa Cruz, Calif.) were carried out as described previously (18). Results are representative of 3 independent experiments.

PH domain deleted SHIP1 = molecular target: T1, PH domain deleted SHIP1 (Mus musculus, UniProt Q9ES52, DEL292-400/E403A/P402A/Q401A); assay: In vitro SHIP enzyme assay, PH domain deleted SHIP1; assay type: biochemical; settings: FIG. 10, FIG. 14A
T1 construct: Full length, wild-type SHIP1 enzyme (wt) or SHIP1 enzyme in which the PH or C2 domains were deleted; His6 (N); made in house; 293T cells are stated only for the wild-type enzyme
T1 sequence (Q9ES52 with tags, fused parts or gaps DEL292-400/Q401A/P402A/E403A): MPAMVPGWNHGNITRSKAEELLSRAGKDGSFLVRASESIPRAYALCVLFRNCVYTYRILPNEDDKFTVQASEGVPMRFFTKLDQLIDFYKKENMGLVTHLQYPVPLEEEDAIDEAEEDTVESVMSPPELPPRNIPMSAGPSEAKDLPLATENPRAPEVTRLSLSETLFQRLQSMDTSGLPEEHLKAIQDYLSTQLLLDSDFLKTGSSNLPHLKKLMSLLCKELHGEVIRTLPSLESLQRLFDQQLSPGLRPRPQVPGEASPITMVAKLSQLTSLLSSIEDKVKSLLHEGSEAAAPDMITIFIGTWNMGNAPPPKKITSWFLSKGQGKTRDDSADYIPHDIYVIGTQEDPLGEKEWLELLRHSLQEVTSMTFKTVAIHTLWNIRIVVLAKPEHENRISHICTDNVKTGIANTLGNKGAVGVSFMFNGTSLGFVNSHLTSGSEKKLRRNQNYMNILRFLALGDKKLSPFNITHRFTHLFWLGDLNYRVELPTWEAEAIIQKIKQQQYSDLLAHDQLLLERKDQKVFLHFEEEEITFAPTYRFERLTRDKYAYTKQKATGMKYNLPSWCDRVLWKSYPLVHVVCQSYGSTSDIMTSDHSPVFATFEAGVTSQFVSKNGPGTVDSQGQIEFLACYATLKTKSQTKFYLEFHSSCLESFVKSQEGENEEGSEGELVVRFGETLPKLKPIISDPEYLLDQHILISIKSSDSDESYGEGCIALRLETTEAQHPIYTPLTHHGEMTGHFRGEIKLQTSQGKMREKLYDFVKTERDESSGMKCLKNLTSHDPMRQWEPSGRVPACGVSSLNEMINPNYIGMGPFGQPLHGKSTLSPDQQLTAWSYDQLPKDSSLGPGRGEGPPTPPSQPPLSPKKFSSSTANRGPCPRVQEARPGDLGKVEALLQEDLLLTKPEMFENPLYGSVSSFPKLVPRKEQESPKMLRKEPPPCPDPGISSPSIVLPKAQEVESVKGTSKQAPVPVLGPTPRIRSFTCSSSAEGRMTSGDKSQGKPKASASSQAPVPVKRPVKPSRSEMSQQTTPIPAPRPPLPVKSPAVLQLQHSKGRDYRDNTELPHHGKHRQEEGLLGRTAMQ
Text: The SHIP1 PH domain deletion mutant and an isolated PH domain construct were generated using techniques similar to those used for the C2 domain. More specifically, the PH domain (amino acids 984-1319) was deleted from the murine SHIP (mSHIP) cDNA as follows: using pME18S-mSHIP1 as a template, a 527 by PCR fragment (“Upstream Fragment”) was generated using the indicated primers to generate a fragment corresponding to sequence immediately upstream of the SHIP PH domain within which resides a unique AccI restriction cut site. A Nod restriction cut site was also introduced to the 3′ end of this fragment. The PCR product was digested with Acd and Nod, and gel purified. Using pME18S-mSHIP1 as a template, a 776 by PCR fragment (“Downstream Fragment”) was generated using the indicated primers corresponding to sequence immediately downstream of the SHIP PH domain within which resides a unique ClaI restriction cut site. A Nod restriction cut site was introduced to the 5′ end of this fragment. […]
In vitro SHIP enzyme assay. […] The reaction was allowed to proceed for 20 min at 37° C. and the amount of inorganic phosphate released assessed by the addition of Malachite Green reagent followed by an absorbance measurement at 650 nm (15). […] Enzyme data are expressed as the mean of triplicates+/−SEM. […]

| Molecule | LPS-stimulated TNFα production, SHIP1+/+ vs SHIP1−/− macrophages [1] | activation of SHIP1 with PH domain deleted (PH domain deleted SHIP1) |
| --- | --- | --- |
| Cc1cc(O)c(O)c2c1[C@]1(C)CC[C@H]3C(C)(C)CCC[C@]3(C)[C@H]1C2 [AQX-016A] | preferentially inhibited LPS-stimulated TNFα production in SHIP1+/+ than in SHIP1−/− | – |
| Cc1cc(O)cc2c1[C@]1(C)CC[C@H]3C(C)(C)CCC[C@]3(C)[C@H]1C2 [AQX-MN100] | selectively inhibited TNFα production from SHIP1+/+ but not SHIP1−/− macrophages; also recorded: inhibits TNFα production from LPS stimulated SHIP1+/+ but not −/− BMmφs | attenuates but does not prevent activation; also recorded: abrogates ability of SHIP to be activated |
| phosphatidylinositol-3,4-bisphosphate [PI-3,4-P2, reference compound] | – | abrogates ability of SHIP to be activated |
